Data as given in US4088778A, “Method for the treatment of hypertension” (priority 1975, dated 1978).

Key:
[1] = Subacute and chronic toxicities; format: in vivo; settings: rats 100 to 1000 mg/Kg and beagles 100 mg/Kg daily, 3 or 6 months
Protocol: (B) Subacute and Chronic Toxicities:
TN and TA were separately administered to rats and beagles at daily doses of 100 to 1000 mg/Kg and 100 mg/Kg, respectively, continuously for 3 or 6 months.

[2] = Clinical Test I, double blind: general improvement; format: in vivo, human patients; settings: for General improvement: Not Changed / General improvement: Partial Improvement / General improvement: Remarkable Improvement / General improvement: Slight Improvement / General improvement: Worsened: number of patients
Protocol: Two capsules were orally administered at one time, and the administration was conducted three times a day after eating. The period of the administration was principally 4 weeks or 6 weeks. During this period, the administration was performed continuously. Combined administration of drugs having the same function as that of TN (vitamin E drugs, nicotinic acid, its derivatives and peripheral vasolidators) was prohibited.
The general improvement was evaluated by the attendant physician based on subjective symptoms and test results according to the following scale:
i: remarkable improvement
When 2, 4 or 6 weeks had passed from the start of the administration, the improvement was evaluated based on the symptoms before the administration.

Structure (SMILES): Cc1c(C)c2c(c(C)c1OC(=O)c1cccnc1)CCC(C)(CCCC(C)CCCC(C)CCCC(C)C)O2 (racemic) [TN, dl-α-tocopheryl nicotinate]
- deaths [1]: no deaths
- haematological, haemetobiological and histological surveys [1]: no manifestation of the toxicity was observed
- inhibition of the body weight [1]: inhibition of the body weight was not observed
- general improvement ratio over time ([2]; 2, 4, 6 weeks): the improvement ratio was increased every two weeks
- General improvement: Improvement Ratio ([2]; 2 weeks, total 38, P group 68.6 %): 73.7%
- significance of general improvement versus P group ([2]; 4 to 6 weeks): significantly better results were obtained in the TN group than in the P group
- General improvement: Improvement Ratio ([2]; 4 weeks, total 39, P group 61.1 %, P = 0.0127): 87.2%
- General improvement: Improvement Ratio ([2]; 6 weeks, total 21, P group 63.6 %, P = 0.0094): 95.2%
- General improvement: Not Changed ([2]; 2 weeks, total 38): 9
- General improvement: Partial Improvement ([2]; 2 weeks, total 38): 13
- General improvement: Remarkable Improvement ([2]; 2 weeks, total 38): 6
- General improvement: Slight Improvement ([2]; 2 weeks, total 38): 9
- General improvement: Worsened ([2]; 2 weeks, total 38): 1
- General improvement: Not Changed ([2]; 4 weeks, total 39): 5
- General improvement: Partial Improvement ([2]; 4 weeks, total 39): 14
- General improvement: Remarkable Improvement ([2]; 4 weeks, total 39): 6
- General improvement: Slight Improvement ([2]; 4 weeks, total 39): 14
- General improvement: Worsened ([2]; 4 weeks, total 39): 0
- General improvement: Not Changed ([2]; 6 weeks, total 21): 1
- General improvement: Partial Improvement ([2]; 6 weeks, total 21): 7
- General improvement: Remarkable Improvement ([2]; 6 weeks, total 21): 8
- General improvement: Slight Improvement ([2]; 6 weeks, total 21): 5
- General improvement: Worsened ([2]; 6 weeks, total 21): 0
